Assay results from ChEMBL document CHEMBL1144797, “Synthesis and antimicrobial activity of 7 alpha-amino-23,24-bisnor-5 alpha-cholan-22-ol derivatives” (Bioorg Med Chem Lett, 2008).
≈ marks a conversion by molar mass, not a printed value.

Legend:
Streptococcus pyogenes [1] = assay: Antimicrobial activity against Streptococcus pyogenes 308A; format: functional
Streptococcus pyogenes [2] = assay: Antimicrobial activity against Streptococcus pyogenes 77A; format: functional
Staphylococcus aureus = assay: Antimicrobial activity against Staphylococcus aureus 503; format: functional
Escherichia coli = assay: Antimicrobial activity against Escherichia coli DC2; format: functional
Pseudomonas aeruginosa [3] = assay: Antimicrobial activity against Pseudomonas aeruginosa 9027; format: functional
Pseudomonas aeruginosa [4] = assay: Antimicrobial activity against Pseudomonas aeruginosa 1771M; format: functional
Salmonella typhimurium = assay: Antimicrobial activity against Salmonella Typhimurium; format: functional, Salmonella enterica subsp. enterica serovar Typhimurium; conditions: Salmonella enterica
Enterobacter cloacae = assay: Antimicrobial activity against Enterobacter cloacae 1321E; format: functional
[5] = Hemolytic activity against RBC at 100 ug/ml; format: ADME, cell-based; conditions: erythrocyte

MIC (Streptococcus pyogenes [1])	MIC (Streptococcus pyogenes [2])	MIC (Staphylococcus aureus)	MIC (Escherichia coli)	MIC (Pseudomonas aeruginosa [3])	MIC (Pseudomonas aeruginosa [4])	MIC (Salmonella typhimurium)	MIC (Enterobacter cloacae)	Structure (SMILES)	Activity [5]
12.5 µg/mL	25 µg/mL	12.5 µg/mL	50 µg/mL	25 µg/mL	> 100 µg/mL	> 100 µg/mL	> 100 µg/mL	C[C@H](CO)[C@H]1CC[C@H]2[C@@H]3[C@H](N)C[C@H]4C[C@@H](NCCCNCCCCN)CC[C@]4(C)[C@H]3CC[C@]12C.Cl.Cl.Cl.Cl	–
3.1 µg/mL	25 µg/mL	6.3 µg/mL	50 µg/mL	6.3 µg/mL	50 µg/mL	> 100 µg/mL	> 100 µg/mL	C[C@H](CO)[C@H]1CC[C@H]2[C@@H]3[C@H](N)C[C@H]4C[C@@H](NCCCNCCCCNCCCN)CC[C@]4(C)[C@H]3CC[C@]12C.Cl.Cl.Cl.Cl.Cl	–
12.5 µg/mL	25 µg/mL	12.5 µg/mL	> 100 µg/mL	25 µg/mL	> 100 µg/mL	> 100 µg/mL	> 100 µg/mL	C[C@H](CO)[C@H]1CC[C@H]2[C@@H]3[C@H](N)C[C@H]4C[C@H](NCCCNCCCCN)CC[C@]4(C)[C@H]3CC[C@]12C.Cl.Cl.Cl.Cl	–
6.3 µg/mL	25 µg/mL	12.5 µg/mL	50 µg/mL	12.5 µg/mL	25 µg/mL	> 100 µg/mL	> 100 µg/mL	C[C@H](CO)[C@H]1CC[C@H]2[C@@H]3[C@H](N)C[C@H]4C[C@H](NCCCNCCCCNCCCN)CC[C@]4(C)[C@H]3CC[C@]12C.Cl.Cl.Cl.Cl.Cl	–
6.3 µg/mL	12.5 µg/mL	6.3 µg/mL	25 µg/mL	12.5 µg/mL	50 µg/mL	> 100 µg/mL	> 100 µg/mL	C[C@H](COS(=O)(=O)O)[C@H]1CC[C@H]2[C@@H]3[C@H](N)C[C@H]4C[C@H](NCCCNCCCCN)CC[C@]4(C)[C@H]3CC[C@]12C.Cl.Cl.Cl.Cl	–
25 µg/mL	50 µg/mL	25 µg/mL	> 100 µg/mL	> 100 µg/mL	> 100 µg/mL	> 100 µg/mL	> 100 µg/mL	C[C@H](COS(=O)(=O)O)[C@H]1CC[C@H]2[C@@H]3[C@H](N)C[C@H]4C[C@@H](NCCCNCCCCN)CC[C@]4(C)[C@H]3CC[C@]12C.Cl.Cl.Cl.Cl	–

Continued, compound first:

Structure (SMILES)	MIC (Streptococcus pyogenes [1])	MIC (Streptococcus pyogenes [2])	MIC (Staphylococcus aureus)	MIC (Escherichia coli)	MIC (Pseudomonas aeruginosa [3])	MIC (Pseudomonas aeruginosa [4])	MIC (Salmonella typhimurium)	MIC (Enterobacter cloacae)	Activity [5]
CC(C)[C@H]1CC[C@H]2[C@@H]3[C@H](O)C[C@H]4CC(N)CC[C@]4(C)[C@H]3CC[C@]12C (stereo not given in full)	100 µg/mL (≈ 300 µM)	100 µg/mL (≈ 300 µM)	100 µg/mL (≈ 300 µM)	100 µg/mL (≈ 300 µM)	100 µg/mL (≈ 300 µM)	100 µg/mL (≈ 300 µM)	100 µg/mL (≈ 300 µM)	100 µg/mL (≈ 300 µM)	–
C[C@H](CO)[C@H]1CC[C@H]2[C@@H]3[C@H](N)C[C@H]4C[C@H](O)CC[C@]4(C)[C@H]3CC[C@]12C.Cl	3.1 µg/mL	6.3 µg/mL	3.1 µg/mL	12.5 µg/mL	> 100 µg/mL	> 100 µg/mL	> 100 µg/mL	> 100 µg/mL	Active
C[C@H](CO)[C@H]1CC[C@H]2[C@@H]3[C@H](N)C[C@H]4C[C@@H](O)CC[C@]4(C)[C@H]3CC[C@]12C.Cl	6.3 µg/mL	12.5 µg/mL	12.5 µg/mL	25 µg/mL	> 100 µg/mL	> 100 µg/mL	> 100 µg/mL	> 100 µg/mL	–
C[C@H](CO)[C@H]1CC[C@H]2[C@@H]3[C@H](N)C[C@H]4C[C@H](N)CC[C@]4(C)[C@H]3CC[C@]12C.Cl.Cl	1.6 µg/mL	3.1 µg/mL	3.1 µg/mL	12.5 µg/mL	50 µg/mL	25 µg/mL	25 µg/mL	50 µg/mL	–
C[C@H](CO)[C@H]1CC[C@H]2[C@@H]3[C@H](N)C[C@H]4C[C@@H](N)CC[C@]4(C)[C@H]3CC[C@]12C.Cl.Cl	6.3 µg/mL	6.3 µg/mL	6.3 µg/mL	25 µg/mL	> 100 µg/mL	50 µg/mL	50 µg/mL	50 µg/mL	–
C[C@H](CO)[C@H]1CC[C@H]2[C@@H]3[C@H](F)C[C@H]4C[C@@H](NCCCNCCCCN)CC[C@]4(C)[C@H]3CC[C@]12C.Cl.Cl.Cl	6.3 µg/mL	6.3 µg/mL	6.3 µg/mL	6.3 µg/mL	6.3 µg/mL	3.1 µg/mL	> 100 µg/mL	> 100 µg/mL	–
C[C@H](CO)[C@H]1CC[C@H]2[C@@H]3[C@H](O)C[C@H]4C[C@@H](NCCCNCCCCN)CC[C@]4(C)[C@H]3CC[C@]12C.Cl.Cl.Cl	25 µg/mL	25 µg/mL	12.5 µg/mL	25 µg/mL	12.5 µg/mL	25 µg/mL	50 µg/mL	50 µg/mL	–
